From patent US20250387400A1, “TYK2 INHIBITORS” (BIOGEN MA INC., priority 2022, published 2025)
Where two headings read alike, the source gives them in different places.

Columns and labels:
Type in all cases: biochemical
[1] = target: T1, catalytic kinase (JH1) domain of human JAK3 (Homo sapiens, UniProt P52333); experiment: ADP-Glo kinase assay, JAK3 kinase domain
T1 construct: Catalytic activities of recombinant JAK2, JAK3 and TYK2 kinase domain
Description: (§1) As summarized in Table 3 below, compounds of the disclosure were assessed for their ability to inhibit TYK2, JAK1, JAK2, and JAK3 activity.
(§2) The kinase activity of recombinantly generated catalytic kinase (also known as JH1) domain of human JAK1, JAK2, JAK3 and TYK2 were evaluated in a plate-based assay using the ADP-Glo™ Kinase Assay platform. […] The reactions proceed for 100 minutes and the catalytic activity is quantified by first depleting the unused ATP, converting the hydrolyzed ADP into ATP to generate luminescence in a luciferase reaction; which is the basis of the ADP-Glo platform. Compounds are tested at either 10 μM or 1 μM top concentration, 11 points of 3-fold dilution. The data is normalized and the percent activity versus log concentration of compound is fitted with a 4-parameter logistic model to generate a curve and an IC50 value.

[2] = target: T2, catalytic kinase (JH1) domain of human JAK2 (Homo sapiens, UniProt O60674); experiment: ADP-Glo kinase assay, JAK2 kinase domain
T2 construct: Catalytic activities of recombinant JAK2, JAK3 and TYK2 kinase domain
Description: as §1, §2

[3] = target: T3, catalytic kinase (JH1) domain of human JAK1 (Homo sapiens, UniProt P23458); experiment: ADP-Glo kinase assay, JAK1 kinase domain
T3 construct: 4 nM of recombinant JAK1 kinase domain is used to phosphorylate
Description: as §1, §2

[4] = target: T4, catalytic kinase (JH1) domain of human TYK2 (Homo sapiens, UniProt P29597); experiment: ADP-Glo kinase assay, TYK2 kinase domain
T4 construct: recombinantly generated catalytic kinase (also known as JH1) domain of human JAK1, JAK2, JAK3 and TYK2
T4 sequence (P29597 897-1176 limits assumed): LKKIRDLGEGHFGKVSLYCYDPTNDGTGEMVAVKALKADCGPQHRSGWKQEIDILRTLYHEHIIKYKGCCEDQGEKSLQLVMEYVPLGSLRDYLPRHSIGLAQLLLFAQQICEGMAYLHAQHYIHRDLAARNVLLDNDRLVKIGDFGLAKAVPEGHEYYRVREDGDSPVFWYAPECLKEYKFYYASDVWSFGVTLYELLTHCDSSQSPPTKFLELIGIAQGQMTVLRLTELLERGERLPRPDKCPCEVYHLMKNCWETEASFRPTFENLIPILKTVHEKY
Description: as §1, §2

[5] = 0.3 nM recombinant JAK3 kinase domain, 50 μM JAK3-974 peptide, 4 μM ATP, 100 minutes, read-out: JAK3 biochem IC50 (nM) Mean
[6] = 0.2 nM recombinant JAK2 kinase domain, 50 μM JAK3-974 peptide, 15 μM ATP, 100 minutes, read-out: JAK2 biochem IC50 (nM) Mean
[7] = 4 nM recombinant JAK1 kinase domain, 50 μM JAK3-342 peptide, 35 μM ATP, 100 minutes, read-out: JAK1 biochem IC50 (nM) Mean
[8] = 2 nM recombinant TYK2 kinase domain, 50 μM JAK3-974 peptide, 10 μM ATP, 100 minutes, read-out: TYK2 biochem IC50 (nM) Mean

T3 sequence (P23458 875-1153 limits assumed): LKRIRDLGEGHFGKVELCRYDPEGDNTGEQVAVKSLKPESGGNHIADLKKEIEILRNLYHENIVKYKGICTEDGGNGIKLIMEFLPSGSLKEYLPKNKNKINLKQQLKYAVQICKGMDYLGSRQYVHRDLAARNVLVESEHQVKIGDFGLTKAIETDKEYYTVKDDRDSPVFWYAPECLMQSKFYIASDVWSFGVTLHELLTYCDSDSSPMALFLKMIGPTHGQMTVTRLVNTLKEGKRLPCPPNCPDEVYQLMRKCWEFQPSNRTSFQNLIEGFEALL
T1 sequence (P52333 822-1111 limits assumed): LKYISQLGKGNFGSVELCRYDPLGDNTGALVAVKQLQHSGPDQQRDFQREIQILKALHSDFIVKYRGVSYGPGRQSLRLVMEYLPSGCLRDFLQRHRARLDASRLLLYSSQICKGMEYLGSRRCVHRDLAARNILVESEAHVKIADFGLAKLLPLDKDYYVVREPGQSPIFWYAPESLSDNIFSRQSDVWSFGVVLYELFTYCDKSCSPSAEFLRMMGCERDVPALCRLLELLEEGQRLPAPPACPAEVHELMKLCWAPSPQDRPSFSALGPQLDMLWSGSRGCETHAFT
T2 sequence (O60674 849-1124 limits assumed): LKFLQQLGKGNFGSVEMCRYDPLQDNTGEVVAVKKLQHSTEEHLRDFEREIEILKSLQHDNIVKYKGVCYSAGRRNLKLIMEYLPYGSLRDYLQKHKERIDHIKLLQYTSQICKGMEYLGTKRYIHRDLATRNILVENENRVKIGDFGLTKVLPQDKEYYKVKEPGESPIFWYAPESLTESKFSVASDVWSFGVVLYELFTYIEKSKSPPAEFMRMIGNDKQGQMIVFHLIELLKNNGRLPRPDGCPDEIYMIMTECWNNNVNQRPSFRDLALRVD

Structure (SMILES) | IC50 [1, 5] [nM] | IC50 [2, 6] [nM] | IC50 [3, 7] [nM] | IC50 [4, 8] [nM] | IC50 [1] [nM] | IC50 [2] [nM] | IC50 [3] [nM] | IC50 [4] [nM]
COc1cc(-c2cc3c(N4CC5CCC(C4)N5[C@H]4C[C@H](C#N)C4)ccnc3[nH]2)ccn1 [Example 15, (1R,3r)-3-(3-(2-(2-methoxypyridin-4-yl)-1H-pyrrolo[2,3-b]pyridin-4-yl)-3,8-diazabicyclo[3.2.1]octan-8-yl)cyclobutane-1-carbonitrile] |  |  |  |  | 74.3 | 15 | 13.7 | 2.13
COc1cc(-c2cc3c(N4CC5CCC(C4)N5C4COC4)ccnc3[nH]2)ccn1 [Example 18, 2-(2-methoxypyridin-4-yl)-4-(8-(oxetan-3-yl)-3,8-diazabicyclo[3.2.1]octan-3-yl)-1H-pyrrolo[2,3-b]pyridine] | > 1000 | 97 | 49.5 | 30.5 |  |  |  | 
Cn1cc(-c2cc3c(N4CC5CCC(C4)N5C4CC(O)(C(F)(F)F)C4)ccnn3c2)cn1 (stereo not drawn) [Example 22, 3-(3-(6-(1-methyl-1H-pyrazol-4-yl)pyrrolo[1,2-b]pyridazin-4-yl)-3,8-diazabicyclo[3.2.1]octan-8-yl)-1-(trifluoromethyl)cyclobutan-1-ol] | > 10000 | 1200 | 5200 | 305 |  |  |  | 
COC1CC(N2C3CCC2CN(c2ccnn4cc(-c5cnn(C)c5)cc24)C3)C1 (stereo not drawn) [Example 24, 4-(8-(3-methoxycyclobutyl)-3,8-diazabicyclo[3.2.1]octan-3-yl)-6-(1-methyl-1H-pyrazol-4-yl)pyrrolo[1,2-b]pyridazine] | 4250 | 380 | 230 | 19 |  |  |  | 
Cn1cc(-c2cc3c(N4CC5CCC(C4)N5C4CC(O)C4)ccnn3c2)cn1 (stereo not drawn) [Example 25, 3-(3-(6-(1-methyl-1H-pyrazol-4-yl)pyrrolo[1,2-b]pyridazin-4-yl)-3,8-diazabicyclo[3.2.1]octan-8-yl)cyclobutan-1-ol] | > 10000 | 5050 | 6250 | 435 |  |  |  | 
Cn1cc(-c2cc3c(N4CC5CCC(C4)N5C4CCC4)ccnn3c2)cn1 [Example 26, 4-(8-cyclobutyl-3,8-diazabicyclo[3.2.1]octan-3-y1)-6-(1-methyl-1H-pyrazol-4-yl)pyrrolo[1,2-b]pyridazine] |  |  |  |  | > 10000 | 3300 | 6100 | 195
CO[C@H]1C[C@H](N2C3CCC2CN(c2ccnn4cc(-c5cnn(C)c5)cc24)C3)C1 [Example 29, 4-(8-((1r,3R)-3-methoxycyclobutyl)-3,8-diazabicyclo[3.2.1]octan-3-yl)-6-(1-methyl-1H-pyrazol-4-yl)pyrrolo[1,2-b]pyridazine] | > 10000 | 3600 | 6500 | 187 |  |  |  | 
CO[C@H]1C[C@@H](N2C3CCC2CN(c2ccnn4cc(-c5cnn(C)c5)cc24)C3)C1 [Example 30, 4-(8-((1s,3S)-3-methoxycyclobutyl)-3,8-diazabicyclo[3.2.1]octan-3-yl)-6-(1-methyl-1H-pyrazol-4-yl)pyrrolo[1,2-b]pyridazine] | > 10000 | 4670 | > 10000 | 367 |  |  |  | 
Cn1cc(-c2cc3c(N4CC5CCC(C4)N5[C@H]4C[C@H](O)C4)ccnn3c2)cn1 [Example 31, (1R,3r)-3-(3-(6-(1-methyl-1H-pyrazol-4-yl)pyrrolo[1,2-b]pyridazin-4-yl)-3,8-diazabicyclo[3.2.1]octan-8-yl)cyclobutan-1-ol] | > 10000 | 4000 | 9200 | 205 |  |  |  | 
Cn1cc(-c2cc3c(N4CC5CCC(C4)N5[C@H]4C[C@@H](O)C4)ccnn3c2)cn1 [Example 32, (1S,3s)-3-(3-(6-(1-methyl-1H-pyrazol-4-yl)pyrrolo[1,2-b]pyridazin-4-yl)-3,8-diazabicyclo[3.2.1]octan-8-yl)cyclobutan-1-ol] | > 10000 | 6300 | > 10000 | 460 |  |  |  | 
Cn1cc(-c2cc3c(N4CC5CCC(C4)N5C4CC5(COC5)C4)ccnn3c2)cn1 [Example 33, 4-(8-(2-oxaspiro[3.3]heptan-6-yl)-3,8-diazabicyclo[3.2.1]octan-3-yl)-6-(1-methyl-1H-pyrazol-4-yl)pyrrolo[1,2-b]pyridazine] |  |  |  |  | 6200 | 740 | 1350 | 42.5
Cn1cc(-c2cc3c(N4CC5CCC(C4)N5[C@H]4C[C@@H](S(C)(=O)=O)C4)ccnn3c2)cn1 [Example 36, 6-(1-methyl-1H-pyrazol-4-yl)-4-(8-((1s,3s)-3-(methylsulfonyl)cyclobutyl)-3,8-diazabicyclo[3.2.1]octan-3-yl)pyrrolo[1,2-b]pyridazine] |  |  |  |  | 1700 | 240 | 435 | 50.5
Cn1cc(-c2cc3c(N4CC5CCC(C4)N5[C@H]4C[C@H](S(C)(=O)=O)C4)ccnn3c2)cn1 [Example 37, 6-(1-methyl-1H-pyrazol-4-yl)-4-(8-((1r,3r)-3-(methylsulfonyl)cyclobutyl)-3,8-diazabicyclo[3.2.1]octan-3-yl)pyrrolo[1,2-b]pyridazine] |  |  |  |  | > 10000 | 1450 | 4300 | 310
COCC[C@]1(C#N)C[C@H](N2C3CCC2CN(c2ccnn4cc(-c5cnn(C)c5)cc24)C3)C1 [Example 38, (1r,3r)-1-(2-methoxyethyl)-3-(3-(6-(1-methyl-1H-pyrazol-4-yl)pyrrolo[1,2-b]pyridazin-4-yl)-3,8-diazabicyclo[3.2.1]octan-8-yl)cyclobutane-1-carbonitrile] | 7300 | 1100 | 1400 | 185 |  |  |  | 

More lines, in order of falling IC50 [1, 5], values ahead:

IC50 [1, 5] [nM] | IC50 [2, 6] [nM] | IC50 [3, 7] [nM] | IC50 [4, 8] [nM] | Structure (SMILES) | IC50 [1] [nM] | IC50 [2] [nM] | IC50 [3] [nM] | IC50 [4] [nM]
2550 | 295 | 720 | 23 | Cn1cc(-c2cc3c(N4CC5CCC(C4)N5[C@H]4C[C@](C)(C#N)C4)ccnn3c2)cn1 [Example 34, (1r,3r)-1-methyl-3-(3-(6-(1-methyl-1H-pyrazol-4-yl)pyrrolo[1,2-b]pyridazin-4-yl)-3,8-diazabicyclo[3.2.1]octan-8-yl)cyclobutane-1-carbonitrile] |  |  |  | 
2150 | 185 | 310 | 14.5 | Cn1cc(-c2cc3c(N4CC5CCC(C4)N5C4COC4)ccnn3c2)cn1 [Example 23, 6-(1-methyl-1H-pyrazol-4-yl)-4-(8-(oxetan-3-y1)-3,8-diazabicyclo[3.2.1]octan-3-yl)pyrrolo[1,2-b]pyridazine] |  |  |  | 
1400 | 265 | 520 | 40.5 | Cn1cc(-c2cc3c(N4CC5CCC(C4)N5C4(CC#N)COC4)ccnn3c2)cn1 [Example 20, 2-(3-(3-(6-(1-methyl-1H-pyrazol-4-yl)pyrrolo[1,2-b]pyridazin-4-yl)-3,8-diazabicyclo[3.2.1]octan-8-yl)oxetan-3-yl)acetonitrile] |  |  |  | 
785 | 115 | 68 | 40.5 | COc1cc(-c2cc3c(N4CC5CCC(C4)N5C4CC(C(F)F)C4)ccnc3[nH]2)ccn1 (stereo not drawn) [Example 19, 4-(8-(3-(difluoromethyl)cyclobutyl)-3,8-diazabicyclo[3.2.1]octan-3-yl)-2-(2-methoxypyridin-4-yl)-1H-pyrrolo[2,3-b]pyridine] |  |  |  | 
550 | 117 | 315 | 17.5 | Cn1cc(-c2cc3c(N4CC5CCC(C4)N5[C@H]4C[C@@H](C#N)C4)ccnc3[nH]2)cn1 [Example 16, (1S,3s)-3-(3-(2-(1-methyl-1H-pyrazol-4-yl)-1H-pyrrolo[2,3-b]pyridin-4-yl)-3,8-diazabicyclo[3.2.1]octan-8-yl)cyclobutane-1-carbonitrile] |  |  |  | 
190 | 31.5 | 89 | 4.7 | Cn1cc(-c2cc3c(N4CC5CCC(C4)N5[C@H]4C[C@@](C)(C#N)C4)ccnn3c2)cn1 [Example 35, (1s,3s)-1-methyl-3-(3-(6-(1-methyl-1H-pyrazol-4-yl)pyrrolo[1,2-b]pyridazin-4-yl)-3,8-diazabicyclo[3.2.1]octan-8-yl)cyclobutane-1-carbonitrile] |  |  |  | 
67.7 | 20 | 36.7 | 2.8 | Cn1cc(-c2cc3c(N4CC5CCC(C4)N5C4CC(C#N)C4)ccnc3[nH]2)cn1 [Example 17, (1R,3r)-3-(3-(2-(1-methyl-1H-pyrazol-4-yl)-1H-pyrrolo[2,3-b]pyridin-4-yl)-3,8-diazabicyclo[3.2.1]octan-8-yl)cyclobutane-1-carbonitrile] |  |  |  | 
